Data on two compounds can be found in publication PMC7369900 (International Journal of Molecular Sciences, 2020).

Values after ≈ are worked out from the molar mass of the structure shown. Read-outs that look alike come from different tables or passages of the source.

Data set [1] relates to Hep G2. Description: cells. Type of data set: cell-based, human. As to conditions: Hep G2, 72 h, MTT. The method, boiled down: (§1)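 MTT assay after 72 h compound exposure at 37 °C; LLC-PK1 in Medium 199 + 7.5% FBS, Hep G2 in MEM Eagle + 10% FBS, HEK 293 in DMEM + 10% FBS (10% CO2 for HEK 293, otherwise 5%). MTT 3 h, formazan in DMSO, A540; cytotoxicity relative to drug-free control, triplicates.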

Data set [2] relates to HEK 293. Description: cells. Type of data set: cell-based, human. As to conditions: HEK 293, 72 h, MTT. The gist of the method:
as §1

In data set [3] the target is T1, yeast DNA topoisomerase II (Saccharomyces cerevisiae, UniProt P06786).
T1 construct: purchased Inspiralis (Norwich, UK)
T1 sequence (P06786 whole entry): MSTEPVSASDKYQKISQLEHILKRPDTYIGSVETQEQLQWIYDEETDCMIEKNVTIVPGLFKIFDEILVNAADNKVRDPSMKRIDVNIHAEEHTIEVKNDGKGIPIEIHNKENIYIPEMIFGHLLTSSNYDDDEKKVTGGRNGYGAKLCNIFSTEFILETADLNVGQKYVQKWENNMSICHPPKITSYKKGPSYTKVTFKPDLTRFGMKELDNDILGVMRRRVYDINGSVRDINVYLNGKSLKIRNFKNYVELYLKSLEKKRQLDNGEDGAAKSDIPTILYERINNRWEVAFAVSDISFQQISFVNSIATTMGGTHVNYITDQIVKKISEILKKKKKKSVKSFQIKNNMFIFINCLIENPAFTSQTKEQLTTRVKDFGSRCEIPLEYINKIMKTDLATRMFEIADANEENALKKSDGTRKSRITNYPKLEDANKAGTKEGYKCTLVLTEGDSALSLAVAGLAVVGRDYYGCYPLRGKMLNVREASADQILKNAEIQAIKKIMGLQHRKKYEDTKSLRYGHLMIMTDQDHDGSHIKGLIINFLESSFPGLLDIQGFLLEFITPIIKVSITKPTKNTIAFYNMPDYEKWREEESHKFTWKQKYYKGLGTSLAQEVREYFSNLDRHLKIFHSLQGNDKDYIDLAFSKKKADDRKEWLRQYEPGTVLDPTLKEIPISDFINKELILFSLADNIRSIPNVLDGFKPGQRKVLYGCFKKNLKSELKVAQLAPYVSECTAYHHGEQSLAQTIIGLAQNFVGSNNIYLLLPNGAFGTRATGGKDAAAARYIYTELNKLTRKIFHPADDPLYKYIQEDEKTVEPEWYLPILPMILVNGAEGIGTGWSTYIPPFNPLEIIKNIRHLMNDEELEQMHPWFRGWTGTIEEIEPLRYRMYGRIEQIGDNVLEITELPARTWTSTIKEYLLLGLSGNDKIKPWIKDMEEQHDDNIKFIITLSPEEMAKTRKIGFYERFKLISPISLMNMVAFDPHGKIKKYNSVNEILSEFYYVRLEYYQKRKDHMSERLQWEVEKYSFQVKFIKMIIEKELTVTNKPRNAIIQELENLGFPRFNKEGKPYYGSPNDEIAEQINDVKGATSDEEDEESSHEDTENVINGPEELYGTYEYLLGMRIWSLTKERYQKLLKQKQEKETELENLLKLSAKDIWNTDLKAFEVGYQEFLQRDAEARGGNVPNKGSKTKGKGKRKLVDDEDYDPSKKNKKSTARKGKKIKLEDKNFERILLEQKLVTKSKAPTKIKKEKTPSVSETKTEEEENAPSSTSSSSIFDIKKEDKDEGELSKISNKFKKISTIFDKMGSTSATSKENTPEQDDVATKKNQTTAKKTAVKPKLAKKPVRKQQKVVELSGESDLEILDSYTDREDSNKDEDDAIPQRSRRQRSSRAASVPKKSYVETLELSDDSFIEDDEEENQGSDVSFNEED
Put plainly: biochemical. The data set is classed as biochemical. The conditions noted are these: pBR322 relaxation, 30 °C, 30 min.

Data set [4] relates to P. aeruginosa ATCC 27853. Description: microbe, parasite or virus in culture. Type of data set: cell-based, Pseudomonas aeruginosa. The gist of the method:
(§2)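 MIC and MBC were determined by serial two-fold broth microdilution in Mueller Hinton broth per CLSI M07-A10, in triplicate. MIC90 and MIC50 are the concentrations giving 90% or 50% growth reduction versus drug-free control.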

Data set [5] relates to LLC-PK1. Put plainly: cells. Type of data set: cell-based, pig. The conditions noted are these: LLC-PK1, 72 h, MTT. The gist of the method:
as §1

The test system of data set [6] is E. coli ATCC 25922. Put plainly: microbe, parasite or virus in culture. The data set is classed as cell-based, Escherichia coli. As to conditions: E. coli ATCC 25922, MHB. The method, boiled down:
as §2

Data set [7] relates to HL-60. Put plainly: ROS generation (CM-H2DCFDA, flow cytometry). Type of data set: cell-based, human. The conditions noted are these: positive cells in 24 h, class.
The test system of data set [8] is HEK 293. Description: ROS generation (CM-H2DCFDA, flow cytometry). Type of data set: cell-based, human. As to conditions: positive cells in 24 h, class. The gist of the method:
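Cells were seeded 24 h in DMEM, then incubated 0.5, 2.5, 5.5 or 24 h at 37 °C, with 250 µM H2O2 as positive control. CM-H2DCFDA was added for a further 0.5 h, with 7-AAD (0.8 µg/mL) co-staining before flow cytometry. The read-out was the fraction of ROS-positive cells, in triplicate.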
(A flow cytometer gives signals particle by particle.)

Data set [9] relates to C. albicans SC 5314.
Data set [10] concerns C. albicans Gu4.
Data set [11] has as its system C. glabrata DSM 11226.
The test system of data set [12] is C. albicans Δopt1Δopt5Δptr2Δptr22.
Data set [13] has as its system bacteria. Description: Influence of salts: antibacterial activity in MHB2 compared to MHB. Type of data set: cell-based. The conditions noted are these: MHB2: Ca(II) 20–25 mg/L, Mg(II) 10–12.5 mg/L. The protocol:
Additionally, for selected compounds, the aspect of the influence of salts present in the medium on antimicrobial activity was evaluated. […] In the salt-enriched medium, the MIC values determined for TP10-NH2 were up to 40-fold higher than those found in MHB. The phenomenon of reduction of the growth inhibitory activity of antimicrobial peptides at a high salt concentration was previously evidenced by other researchers. It may cause severe limitations for AMPs’ usage as therapeutic agents because of the risk of potential inactivation by salts present in the human body.

Data set [14] deals with Staphylococcus aureus ATCC 25,923. More on the design: method as in PMID 25891396. As to conditions: cited from earlier work.
The test system of data set [15] is S. aureus ATCC 29213. Description: microbe, parasite or virus in culture. The conditions noted are these: S. aureus ATCC 29213, MHB. The data set is classed as cell-based, Staphylococcus aureus. The method, boiled down:
as §2

Data set [16] relates to E. coli ATCC 25,922. More on the design: method as in PMID 25891396. The conditions noted are these: cited from earlier work.
Data set [17] concerns S. epidermidis ATCC 12228. Put plainly: microbe, parasite or virus in culture. Type of data set: cell-based, Staphylococcus epidermidis. The conditions noted are these: S. epidermidis ATCC 12228, MHB. The gist of the method:
as §2

The test system of data set [18] is human red blood cells. Put plainly: Hemolysis assay. As to conditions: 1 h, 37 °C.
Data set [19] deals with yeasts of the Candida genus.
Data set [20] deals with C. krusei DSM 6128.
The subject of data set [21] is S. aureus ATCC 25,923 cells. Description: Stability inside bacterial cells (LC-MS of cell lysate).
The subject of data set [22] is C. albicans Gu4. Description: microbe, parasite or virus in culture. The conditions noted are these: Candida albicans.
Data set [23] deals with C. albicans SC 5314. Description: microbe, parasite or virus in culture. The conditions noted are these: Candida albicans, SC5314.
The subject of data set [24] is C. albicans Gu5. Description: microbe, parasite or virus in culture. The conditions noted are these: Candida albicans.
The test system of data set [25] is C. krusei DSM 6128. Description: microbe, parasite or virus in culture. As to conditions: Pichia kudriavzevii, DSM6128.
Data set [26] deals with C. glabrata DSM 11226. Put plainly: microbe, parasite or virus in culture. The conditions noted are these: Nakaseomyces glabratus, DSM11226.
Data set [27] concerns C. albicans Δopt1Δopt5Δptr2Δptr22. Put plainly: microbe, parasite or virus in culture. The conditions noted are these: Candida albicans.

Regarding `CC[C@H](C)[C@H](NC(=O)[C@H](CCCCN)NC(=O)[C@H](CCCCN)NC(=O)[C@H](C)NC(=O)[C@H](CC(C)C)NC(=O)[C@H](C)NC(=O)[C@H](C)NC(=O)[C@H](CC(C)C)NC(=O)[C@H](C)NC(=O)[C@H](CCCCN)NC(=O)[C@H](CC(C)C)NC(=O)[C@H](CC(N)=O)NC(=O)[C@@H](NC(=O)[C@H](CCCCN)NC(=O)CNC(=O)[C@H](CC(C)C)NC(=O)[C@H](CC(C)C)NC(=O)[C@H](Cc1ccc(O)cc1)NC(=O)CNC(=O)[C@H](C)N)[C@@H](C)CC)C(=O)N[C@@H](CC(C)C)C(N)=O` [TP10-NH2, transportan 10, reference compound], the figures for the IC50 in [1], in [2] and in data set [5] were 32.1 ± 1.65 µM, 25.1 ± 0.86 µM and 22.7 ± 5.65 µM, respectively. Also, the “Concentration of complete inhibition of topoisomerase II activity” value in [3] was 50 µM. For the same compound, the MIC50 in [4] (P. aeruginosa ATCC 27853, MHB) is over 100 µM; in data set [6] it was 1.6 µM (≈ 3.49 µg/mL); in [9], 100 µM (≈ 218 µg/mL); in data set [10], 100 µM (≈ 218 µg/mL); in [11] it was over 200 µM; in [12], 100 µM (≈ 218 µg/mL). Also, the MIC50 in data set [15] was 3.125 µM (≈ 6.82 µg/mL); in data set [17], 1.6 µM (≈ 3.49 µg/mL); in data set [20], over 200 µM. In addition, the MIC90 in data set [4] (P. aeruginosa ATCC 27853, MHB) is over 100 µM; in [6], 1.6 µM (≈ 3.49 µg/mL); in [9] it was 100 µM (≈ 218 µg/mL); in data set [12], 100 µM (≈ 218 µg/mL); in [15] it was 3.125 µM (≈ 6.82 µg/mL); in data set [17], 1.6 µM (≈ 3.49 µg/mL). Moreover, the MIC in data set [4] (Pseudomonas aeruginosa, MHB) is over 100 µM; in data set [14] (Staphylococcus aureus ATCC 25,923, converted from μg/mL), ~ 7 μM; in data set [14] (Staphylococcus aureus ATCC 25,923), 16 µg/mL (≈ 7.33 µM); in data set [16] (E. coli ATCC 25,922, converted from μg/mL), ~ 7 μM; in data set [16] (E. coli ATCC 25,922) it was 16 µg/mL (≈ 7.33 µM). Also, the “ROS HL-60” value in data set [7] is “++ (++ <10% positive cells in 24 h)”. Also, the “ROS HEK 293” value in data set [8] is given as “++ (++ <10% positive cells in 24 h)”. Moreover, the “Influence of salts (MHB2 vs MHB) on antibacterial activity” value in [13] is “strongly affected”. Besides, the “MIC in salt-enriched medium (MHB2) relative to MHB” value in [13] was “up to 40 fold”. Besides, the “MHC50 (concentration causing 50% hemolysis)” value in data set [18] is about 200 µg/mL; in [18] (converted from μg/mL) it was ~ 92 μM. Also, the “MIC against C. albicans” value in [19] was determined as 100 µM (≈ 218 µg/mL). Besides, the “Stability inside bacterial cells” value in data set [21] is recorded as “resistant inside the bacterial cells”.
On to `OC(Cn1cncn1)(Cn1cncn1)c1ccc(F)cc1F` [FLU, Fluconazole], for which the MIC50 was 50 µM (≈ 15.3 µg/mL) in data set [22]; 50 µM (≈ 15.3 µg/mL) in data set [23]; over 200 µM in data set [24]; 50 µM (≈ 15.3 µg/mL) in data set [25]; 100 µM (≈ 30.6 µg/mL) in data set [26]; 50 µM (≈ 15.3 µg/mL) in data set [27]. Also, the MIC90 in data set [23] and in [27] was 100 µM (≈ 30.6 µg/mL) each time.
